Patent US11254644B2, “Inhibitors of alpha-amino-beta-carboxymuconic acid semialdehyde decarboxylase” (TES Pharma S.r.l., priority 2014, dated 2022)

Legend:
[1] = target: ACMSD-1 (Homo sapiens (Human), UniProt Q8TDX5); assay: ACMSD-1 modulation in HEK293T cells transiently expressing ACMSD; type: cell-based; details: about 50 nM to about 5 uM; stimulated 48 hrs to 72 hrs
[2] = tested on: SIRT1-regulated genes in AML-12 cells; assay: RT-qPCR analysis of SIRT1-regulated genes in AML-12 cells; type: cell-based, mouse; details: 24 hrs
Protocol: (§1) Cells (AML-12, Hepa-1.6, HEK-293, primary human and murine hepatocytes) are treated with different concentrations of a compound of Formula (I), Formula (Ia), Formula (Ib), Formula (II), or Formula (III), or a pharmaceutically acceptable salt thereof and the gene expression of ACMSD, Pgc1a, Sod1, and Sod2 (MnSOD) is determined using RT-qPCR. Total RNA is extracted from cells and the extracted RNA is treated with DNase and used for reverse transcription (RT).
(§2) Gene expression of ACMSD and genes known to be regulated by SIRT1, (an enzyme that is strictly NAD^+ dependent) such as Pgc1a, Sod1, Sod2 (MnSOD), were analysed in AML-12 cells, Hepa-1.6 cells and primary murine hepatocytes treated with Compound 1 or 17.
(§3) Cells (AML-12, Hepa-1.6, HEK-293, primary human and murine hepatocytes) were treated with different concentrations of Compound 1 or Compound 17. Total RNA was extracted from cells using TRIzol (Invitrogen) according to the manufacturer's instructions. The RNA was treated with DNase, and 2 μg of RNA was used for reverse transcription (RT). 50× diluted cDNA was used for RT-quantitative PCR (RT-qPCR) reactions. The RT-qPCR reactions were performed using the Light-Cycler system (Roche Applied Science) and a qPCR Supermix (QIAGEN) with the indicated primers. The average of at least three technical repeats was used for each biological data point.

[3] = tested on: SIRT1-regulated genes in Hepa-1.6 cells; assay: RT-qPCR analysis of SIRT1-regulated genes in Hepa-1.6 cells; type: cell-based; details: Hepa-1.6 hepatic cell line, 24 hrs
Protocol: as §1, §2, §3

[4] = target: hACMSD (ACMSD1) (Homo sapiens (Human), UniProt Q8TDX5); assay: Determination of ACMSD1 inhibition, spectrophotometrical in vitro assay; type: biochemical; details: HAA concentration of 10 μM
Protocol: The activity of compounds as inhibitors of ACMSD1 is determined in a spectrophotometrical in vitro assay. The pre-assay mixture is incubated and a compound of Formula (I), Formula (Ia), Formula (Ib), Formula (II), or Formula (III), or a pharmaceutically acceptable salt thereof, and ACMSD1 solution is then added. The effect of ACMS concentration on the enzyme activity is investigated by varying 3-hydroxyanthranilic acid (3OH-HA) concentration in the pre-assay mixture. Kinetic parameters are calculated from the initial velocity data using a Lineweaver-Burk plot.
The activity of compounds 1-19 and 21-23 as inhibitors of ACMSD1 was determined by measuring the conversion of 3OH-Anthranilic Acid into product (i.e., ACMS) in a spectrophotometrical in vitro assay.
The pre-assay mixture consisting of 3-hydroxyanthranilic acid (3OH-HA), 3-hydroxyanthranilic acid, 3,4-diOxygenase (HAO), and a dialyzed crude extract of E. coli BL21 (DE3) cells expressing the recombinant enzyme, was incubated at 25° C. with monitoring of the increase in absorbance at 360 nm due to the formation of ACMS from 3OH-HA. After the reaction was completed within ˜2 mins, an aliquot of ACMSD1 solution (prepared and purified from Pichia Pastoris overexpressing the recombinant enzyme) was added, and the decrease in absorbance at 360 nm was followed at 15 second intervals. The effect of ACMS concentration on the enzyme activity was investigated by varying 3OH-HA concentration from 2 to 20 μM. Kinetic parameters were calculated from the initial velocity data by using the Lineweaver-Burk plot.
The rate of the decrease in absorbance caused by ACMSD1 was calculated by subtracting that of the control reaction mixture without ACMSD from that described above. One unit of ACMSD activity was indicated as the amount of enzyme that converts 1 mmol of ACMS per minute at 25° C. The absence or a reduction of ACMSD1 activity (e.g., by using ACMSD inhibitors) results in a slow ACMS-spontaneous degradation (i.e., cyclization to form quinolic acid).
The enzymatic activity was determined at a HAA concentration of 10 μM in the presence of the compounds in Table 1 below. The compounds were tested at the concentration of about 5 μM and 10 μM and the IC50 was calculated for compounds showing inhibitory activity higher than 50%.

hACMSD (ACMSD1), sequence (Q8TDX5 whole entry): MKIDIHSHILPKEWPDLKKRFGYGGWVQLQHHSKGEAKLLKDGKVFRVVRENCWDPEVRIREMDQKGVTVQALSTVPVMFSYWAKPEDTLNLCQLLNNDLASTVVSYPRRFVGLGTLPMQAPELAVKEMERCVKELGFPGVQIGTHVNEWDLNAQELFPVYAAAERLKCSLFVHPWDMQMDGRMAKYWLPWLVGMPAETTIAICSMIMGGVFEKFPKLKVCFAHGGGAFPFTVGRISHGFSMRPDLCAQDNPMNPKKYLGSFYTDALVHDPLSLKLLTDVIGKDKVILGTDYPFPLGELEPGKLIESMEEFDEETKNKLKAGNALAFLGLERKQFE
ACMSD-1, sequence (Q8TDX5 whole entry): as above

- IC50 [4]: 50 nM
SMILES: N#Cc1c(-c2ccccc2)nc(SCc2cccc(C(=O)O)c2)[nH]c1=O [Compound 1]
- ACMSD-1 activity in transfected HEK293T cells [1]: inhibited ACMSD-1 activity, in a dose dependent manner
- Sod2 mRNA levels [2]: increased in a dose-dependent manner
- Sod2 mRNA levels [3]: increased in a dose-dependent manner
